Measured values: patent US8575203B2, “Chemical compounds” (Boehringer Ingelheim International GmbH, priority 2010, dated 2013)

Biological target: Recombinant human PDK1 enzyme (aa 52-556) (Homo sapiens (Human), UniProt O15530)
Assay: PDK1 kinase assay
Assay type: biochemical
Settings: in vitro kinase assay, His6-PDK1 (aa 52-556), PDKtide, P33-ATP
Summary of the method: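 His6-tagged human PDK1 (aa 52-556) from baculovirus-infected insect cells, 3.33 ng/well, with 25 μM PDKtide in Tris pH 7.5/10 mM Mg-acetate. Compound (from 10 μM, 1:5 steps) was preincubated 30 min at RT, then 25 μM ATP solution with γ-33P-ATP was added for 90 min at RT. Phosphoric-acid-precipitated 33P was counted on filters.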

Chain of Recombinant human PDK1 enzyme (aa 52-556) (O15530 52-556): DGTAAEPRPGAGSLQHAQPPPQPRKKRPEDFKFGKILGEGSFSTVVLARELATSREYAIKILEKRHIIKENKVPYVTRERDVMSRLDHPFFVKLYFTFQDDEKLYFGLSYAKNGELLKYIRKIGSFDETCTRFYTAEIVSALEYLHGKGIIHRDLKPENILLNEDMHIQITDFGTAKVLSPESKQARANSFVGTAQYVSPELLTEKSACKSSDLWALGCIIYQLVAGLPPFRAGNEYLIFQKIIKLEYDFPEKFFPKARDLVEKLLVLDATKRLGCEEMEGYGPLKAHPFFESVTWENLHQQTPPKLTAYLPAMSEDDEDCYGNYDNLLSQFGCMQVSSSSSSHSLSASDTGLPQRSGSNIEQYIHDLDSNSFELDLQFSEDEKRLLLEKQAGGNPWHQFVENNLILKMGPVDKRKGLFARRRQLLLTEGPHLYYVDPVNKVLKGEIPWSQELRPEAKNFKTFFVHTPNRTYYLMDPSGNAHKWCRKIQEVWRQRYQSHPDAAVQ

IC50 | SMILES
24 nM | Cc1n[nH]cc1-c1ccnc2ccc(C#CCNC(=O)c3cncn(Cc4ccc(F)c(F)c4)c3=O)cc12 [II-93]
544 nM | CN(c1c(C#N)cnc2ccc(C#CCNC(=O)c3cccn(Cc4ccc(F)c(F)c4)c3=O)cc12)C1CCCCC1 [II-95]
607 nM | N#Cc1cnc2ccc(C#CCNC(=O)c3cccn(Cc4ccc(F)c(F)c4)c3=O)cc2c1NCCc1ccccc1 [II-96]
1060 nM | N#Cc1cnc2ccc(C#CCNC(=O)c3cccn(Cc4ccc(F)c(F)c4)c3=O)cc2c1NCC1CCCCC1 [II-97]
184 nM | CN(Cc1ccccc1)c1c(C#N)cnc2ccc(C#CCNC(=O)c3cccn(Cc4ccc(F)c(F)c4)c3=O)cc12 [II-98]
683 nM | CN(CC1CCCCC1)c1c(C#N)cnc2ccc(C#CCNC(=O)c3cccn(Cc4ccc(F)c(F)c4)c3=O)cc12 [II-99]
871 nM | N#Cc1cnc2ccc(C#CCNC(=O)c3cccn(Cc4ccc(F)c(F)c4)c3=O)cc2c1NCc1ccccc1 [II-102]
414 nM | CN(CCc1ccccc1)c1c(C#N)cnc2ccc(C#CCNC(=O)c3cccn(Cc4ccc(F)c(F)c4)c3=O)cc12 [II-106]

SMILES | IC50
CN(C)c1c(C#N)cnc2ccc(C#CCNC(=O)c3cccn(Cc4ccc(F)c(F)c4)c3=O)cc12 [II-94] | 27 nM
CCN(CC)c1c(C#N)cnc2ccc(C#CCNC(=O)c3cccn(Cc4ccc(F)c(F)c4)c3=O)cc12 [II-100] | 276 nM
CC(C)N(C)c1c(C#N)cnc2ccc(C#CCNC(=O)c3cccn(Cc4ccc(F)c(F)c4)c3=O)cc12 [II-101] | 148 nM
CCN(C)c1c(C#N)cnc2ccc(C#CCNC(=O)c3cccn(Cc4ccc(F)c(F)c4)c3=O)cc12 [II-103] | 77 nM
CC(C)Nc1c(C#N)cnc2ccc(C#CCNC(=O)c3cccn(Cc4ccc(F)c(F)c4)c3=O)cc12 [II-104] | 147 nM
CNc1c(C#N)cnc2ccc(C#CCNC(=O)c3cccn(Cc4ccc(F)c(F)c4)c3=O)cc12 [II-105] | 46 nM
